Results on one sequence are retold here after patent US20170239318A1, “COMPOSITONS AND METHODS FOR CARTILAGE DEFECT REPAIR USING A RHAMM-MIMETIC PEPTIDE” (New York University, priority 2014, published 2017).

Like-named read-outs stand apart in the source and are kept apart here.

The target in test [1] is T1, recombinant RHAMM (Homo sapiens, UniProt O75330).
T1 sequence (O75330 1-724): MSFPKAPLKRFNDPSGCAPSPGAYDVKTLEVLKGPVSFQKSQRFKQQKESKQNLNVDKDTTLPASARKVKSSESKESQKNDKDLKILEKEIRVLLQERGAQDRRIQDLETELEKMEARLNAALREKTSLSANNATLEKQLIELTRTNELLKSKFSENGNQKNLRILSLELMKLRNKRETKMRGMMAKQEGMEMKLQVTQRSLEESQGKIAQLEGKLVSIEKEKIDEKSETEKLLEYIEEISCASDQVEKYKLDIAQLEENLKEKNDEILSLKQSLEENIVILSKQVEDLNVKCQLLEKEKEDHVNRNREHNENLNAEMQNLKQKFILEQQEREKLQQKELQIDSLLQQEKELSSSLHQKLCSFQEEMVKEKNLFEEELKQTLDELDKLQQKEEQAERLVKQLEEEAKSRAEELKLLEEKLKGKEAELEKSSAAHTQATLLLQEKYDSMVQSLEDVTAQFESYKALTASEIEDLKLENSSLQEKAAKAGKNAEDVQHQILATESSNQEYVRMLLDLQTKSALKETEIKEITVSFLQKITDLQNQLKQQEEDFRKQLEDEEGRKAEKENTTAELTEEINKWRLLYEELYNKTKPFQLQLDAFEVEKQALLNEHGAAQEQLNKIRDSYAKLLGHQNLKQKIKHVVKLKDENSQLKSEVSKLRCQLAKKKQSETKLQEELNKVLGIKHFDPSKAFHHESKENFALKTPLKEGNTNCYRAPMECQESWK
To be noted: cited from earlier work.

Test [2] deals with IL-1β-treated human articular chondrocytes. Description: HA released into the medium of IL-1β-treated human articular chondrocytes (ELSA). In kind it is cell-based. The settings on record: 10 ng/ml IL-1β, 48 h. On the procedure:
FIG. 7: HA concentration in the medium of human articular chondrocytes is increased by IL-1β. A: RHAMM-mimetic peptide at a concentration of 0.026 μg/ml or 0.052 μg/ml (Pep0.026, Pep0.052) had no effect on the HA release into the medium of IL-1β-treated chondrocytes. […] Human articular chondrocytes were serum-starved for 24 h followed by treatment of these cells with 10 ng/ml IL-1β and various concentrations of the RHAMM-mimetic peptide for 48 h. HA released into the medium was measured by ELSA (ELISA-like) specific assay.
Chondrocyte Cultures. Human articular chondrocytes were isolated from articular cartilage samples obtained from patients (donor age range 48-67) undergoing total knee replacement surgery at NYU Hospital for Joint Diseases. Knee cartilage was harvested from regions with no macroscopically evident degeneration. The collection of tissue from patients undergoing knee replacement surgery was approved by the Institutional Regulatory Board (IRB) at NYU School of Medicine. Human chondrocytes were isolated from these cartilage samples and cultured as described by us previously (24). […]
Analysis of HA concentration in Chondrocyte Culture Medium. […] Conditioned media (approximately 1 ml each sample) from chondrocyte cultures were stored frozen at −20° C. until analyzed. […]

Test [3] deals with RHAMM over-expressing LR21 cells. Description: in vitro random motility assay (scratch wound, HA fragment-stimulated cell migration). The class given is cell-based. To be noted: 50 μg/mL peptide with 500 ng/mL 30-mer HA fragments, 24 hours; relative to PBS control, p<0.05. The procedure: FIG. 2: Effect of peptide 15-1 on fibroblast migration, using an in vitro random motility assay. RHAMM over-expressing LR21 cells were plated on a fibronectin-coated surface in Dulbecco's Modified Eagles Medium (DMEM) with 10% fetal bovine serum (FBS). The following day medium was changed to DMEM with 1% FBS, 50 μg/ml peptide, 500 ng/ml 30-mer HA fragment. Random motility was measured microscopically. “Old P15-1” refers to a peptide batch that was used in previous experiments. As control (ctr), PBS was used instead of peptide.
Functional testing of peptide 15-1 using an in vitro random motility assay. The functional testing of peptide 15-1 using an in vitro random motility assay was done essentially as previously described (16). Briefly, RHAMM over-expressing LR21 cells were plated at 7×10^5 cells/well in fibronectin coated six-well plates using Dulbecco's modified Eagle's medium (DMEM) (Gibco BRL/Invitrogen, Carlsbad, Calif.) containing 10% fetal calf serum (FCS). Confluence of cell monolayers after 24 hours was between 80% and 90%. […] The number of cells that had migrated into the scratch wounds was quantified using NIH image processing software ImageJ as follows. A box adjusted to reach each opposing edge of the wound was placed over 3 randomly assigned parts of each scratch wound and the numbers of cells within the box were counted. […]

Test [4] has as its system skin wound repair. To be noted: cited from earlier work.
The subject of test [5] is SW982 synovial cell line. Description: mRNA levels of catabolic markers in IL-1β-treated SW982 synovial fibroblasts (real time PCR). The class given is cell-based. To be noted: 52 ng/ml peptide, 10 ng/ml IL-1β, 24 h. On the procedure: FIG. 9: RHAMM-mimetic peptide decreased the mRNA levels of catabolic markers (Cox-2, IL-6, MMP-13) in the SW982 synovial cell line. SW982 cells after being serum-starved for 24 h were treated with RHAMM-mimetic peptide of SEQ ID NO:1 (Pep) at a concentration of 52 ng/ml for 24 h. mRNA levels of Cox-2, IL-6 and MMP-13 were determined by real time PCR using SYBR Green and normalized to the 18 S RNA. mRNA levels are expressed as relative units with the mRNA levels of untreated cells set as 1. Data are expressed as mean±SD from the results of three different cultures.
The synovial fibroblast cell line SW982 was used between passage 3 and passage 7 and cultured in DMEM containing 10% fetal calf serum until the cells reached confluence. Cells were then serum-starved for 24 h and then treated with 10 ng/ml recombinant human IL-1β and 52 ng/ml RHAMM-mimetic peptide for 48 h.
(§1) RT-PCR and Real-Time PCR Analysis. mRNA levels of catabolic markers (cyclooxygenase (Cox)-2, interleukin (IL)-6, inducible nitric oxide synthase (iNOS), matrix metalloproteinase (MMP)-13) and articular cartilage markers (aggrecan, type II collagen) were determined by real time PCR analysis as described by us previously (25, 26). Briefly, total RNA was isolated from chondrocyte cultures using the RNEASY minikit (Qiagen, Valencia, Calif.). One μg of total RNA was reverse transcribed by using an OMNISCRIPT RT kit (Qiagen). A 1:100 dilution of the resulting cDNA was used as the template to quantify the relative content of mRNA by real-time PCR (STEPONEPLUS™ System; Applied Biosystems, Foster City, Calif.) with the appropriate primers and SYBR Green. PCRs were performed with a SYBR Green PCR Master Mix kit (Applied Biosystems), at 95° C. for 10 min followed by 40 cycles at 95° C. for 15 s and 60° C. for 1 min, and 1 cycle at 95° C. for 15 s and 60° C. for 1 min. The 18 S RNA was amplified at the same time and used as an internal control. The cycle threshold values for 18 S RNA and the samples were measured and calculated by computer software.

The test system of test [6] is full-thickness excisional rat wound. The settings on record: cited from earlier work.
Test [7] has as its system IL-1β-treated human articular chondrocytes. Description: mRNA levels of Cox-2 and type II collagen in IL-1β-treated human articular chondrocytes (real time PCR). In kind it is cell-based. To be noted: peptide at concentrations up to 64 μg/ml (16, 32, 64), 10 ng/ml IL-1β, 24 h. On the procedure: FIG. 8: RHAMM-mimetic peptide at concentrations (16, 32, 64 μg/ml) decreased the mRNA levels of Cox-2 (catabolic marker; A) and increased the mRNA levels of type II collagen (α1 (II), articular cartilage marker, B) in IL-1β-treated human articular chondrocytes. […] Data are expressed as mean±SD from three different cultures.
Chondrocyte Cultures. Human articular chondrocytes were isolated from articular cartilage samples obtained from patients (donor age range 48-67) undergoing total knee replacement surgery at NYU Hospital for Joint Diseases. Knee cartilage was harvested from regions with no macroscopically evident degeneration. […]
RT-PCR and Real-Time PCR Analysis. mRNA levels of catabolic markers (cyclooxygenase (Cox)-2, interleukin (IL)-6, inducible nitric oxide synthase (iNOS), matrix metalloproteinase (MMP)-13) and articular cartilage markers (aggrecan, type II collagen) were determined by real time PCR analysis as described by us previously (25, 26). […] A 1:100 dilution of the resulting cDNA was used as the template to quantify the relative content of mRNA by real-time PCR (STEPONEPLUS™ System; Applied Biosystems, Foster City, Calif.) with the appropriate primers and SYBR Green. […] The cycle threshold values for 18 S RNA and the samples were measured and calculated by computer software.
(In general: Real-time PCR tracks product formation cycle by cycle.)

Test [8] relates to serum-starved human articular chondrocytes. Description: mRNA levels of catabolic and articular cartilage markers in serum-starved human articular chondrocytes (real time PCR). The class given is cell-based. The settings on record: 48 h. On the procedure:
FIG. 6: RHAMM-mimetic peptide at concentrations up to 5 μg/ml decreased the mRNA levels of iNOS and MMP-13 (catabolic markers; A) and increased the mRNA levels of type II collagen (α1(II), articular cartilage marker, B) in serum-starved human articular chondrocytes. […] In addition, […] of peptide decreased the mRNA levels of type II collagen. Human articular chondrocytes after being serum-starved for 24 h were treated with RHAMM-mimetic peptide of SEQ ID NO:1 (Pep.) at various concentrations (0, 26, 52, 520, 1000, 5000 ng/ml) for 48 h. mRNA levels of iNOS, MMP-13, and type II collagen were determined by real time PCR using SYBR Green and normalized to the 18 S RNA. mRNA levels are expressed as relative units with the mRNA levels of untreated cells set as 1. Data are expressed as mean±SD from the results of three different cultures.
Chondrocyte Cultures. Human articular chondrocytes were isolated from articular cartilage samples obtained from patients (donor age range 48-67) undergoing total knee replacement surgery at NYU Hospital for Joint Diseases. Knee cartilage was harvested from regions with no macroscopically evident degeneration. The collection of tissue from patients undergoing knee replacement surgery was approved by the Institutional Regulatory Board (IRB) at NYU School of Medicine. Human chondrocytes were isolated from these cartilage samples and cultured as described by us previously (24). Before human chondrocyte cultures were treated with inflammatory stimulus (interleukin-1beta (IL-1β), chondrocyte cultures were switched to serum-free medium for 24 h followed by treatment with the inflammatory stimulus. Cells were treated with 10 ng/ml human recombinant IL-1β in phosphate-buffered saline (PBS)/0.1% BSA. In addition, serum-starved cells were treated with RHAMM-mimetic peptide at various concentrations, HMWHA (ORTHOVISC) at a concentration of 1000 μg/ml, and a combination at four different weight ratios (1:60, 1:30, 1:15, 1:8) of peptide and HMWHA. Cells were treated with these various agents for 24 or 48 h under serum-free conditions.
as §1

Setting [9] is: applied once to the wound, compared to scrambled, negative control peptide.
[10] abbreviates: all concentrations tested (0.026, 0.052, 0.520, 1, 5, 800 μg/ml), vs untreated cells.

Turning to STMMSRSHKTRSHHV [RHAMM-mimetic peptide], in test [1], the “binding of HA fragments to recombinant RHAMM” value is given as “markedly reduced”. The “HA concentration in conditioned medium (increase caused by IL-1β)” value in test [2] (peptide 26 ng/ml or 52 ng/ml) is given as “little effect”. The “HA concentration in conditioned medium (increase caused by IL-1β)” value in test [2] (peptide 17 μg/ml) is “significantly reduced”. The “reduction in fibroblast migration (number of cells migrated into the scratch wounds)” value in test [3] is given as “statistically significant”. For the same sequence, the wound repair result in test [4] (RHAMM−/− mice) was “not”. Moreover, in test [4] (wild type mice), the wound repair entry was “altered”. Moreover, in test [5], the “Cox-2 mRNA levels” value is “markedly reduced”, the “IL-6 mRNA levels” value is “markedly reduced” and the “MMP-13 mRNA levels” value is “markedly reduced”. Further, in test [6] (applied once to a full-thickness excisional rat wound), the scarless healing entry was “promoted a form of scarless healing”. Besides, in test [6] (setting [9]), the blood vessel density entry is “reduced”, the fibroblast number result is reported as “reduced” and the macrophage number entry is given as “reduced”. In addition, in test [6] (excisional skin wounds, rat model), the “type of healing / fibrosis” value is given as “regenerative type of healing with reduced fibrosis”. In addition, in test [7], the “Cox-2 mRNA levels” value was “decreased” and the “type II collagen mRNA level” value was “increased”. The “decrease of mRNA levels of the catabolic markers (iNOS, MMP-13)” value in test [8] (800 μg/ml compared with lower concentrations of the peptide) was “not as effective”. In addition, the “type II collagen mRNA level” value in test [8] (800 μg/ml, compared to untreated cells) was “decreased”. In test [8] (setting [10]), the “MMP-13 mRNA levels” value is listed as “decreased” and the “iNOS mRNA levels” value is on record as “decreased”. Further, the “type II collagen mRNA levels” value in test [8] (concentrations up to 5 μg/ml, vs untreated cells) is “increased”.
